Data reported in patent US10800789B2, “Antiviral compounds” (Gilead Pharmasset LLC, priority 2012, dated 2020).
Read-outs that look alike come from different tables or passages of the source.

How the values were obtained:
[1] = system: stable HCV 1a RLuc replicon cells (dicistronic genotype 1a H77 replicon); assay: Renilla luciferase HCV replicon reporter assay, genotype 1a; format: cell-based; details: Hepatitis C virus, 72 h, stable 1a H77 RLuc replicon cells
In short: (§1)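 72 h compound exposure (3-fold dilutions from 10 mM DMSO stocks) of replicon cells: stable dicistronic RLuc 1a H77, 1b Con1, 2a JFH-1 (NS5A L31); J6-NS5A chimera in JFH-1 (M31), transient in Huh-Lunet or stable. Renilla luciferase read-out, non-linear regression → EC50. DMSO negative control.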

[2] = system: NS5A chimeric genotype 1b Con1 replicon with genotype 4a ED43 strain NS5A gene; assay: Replicon assay, genotype 4a NS5A chimera; format: cell-based, HCV; details: Hepatitis C virus
[3] = system: stable HCV 1b RLuc replicon cells (dicistronic genotype 1b Con1 replicon); assay: Renilla luciferase HCV replicon reporter assay, genotype 1b; format: cell-based; details: Hepatitis C virus, 72 h, stable 1b Con1 RLuc replicon cells, 72 hours; read-out: 1b
In short: as §1

[4] = IV and PO single dose pharmacokinetic studies in SD rats; format: in vivo, male Sprague-Dawley (SD) rats; details: Sprague-Dawley, rat, plasma, male SD rats, PO 2 mg/kg vs IV infusion 1 mg/kg, read-out: Rat % F
Procedure: IV and PO Single Dose Pharmacokinetic Studies in SD Rats:
The pharmacokinetics of selected compounds was characterized in male Sprague-Dawley (SD) rats (250-300g). In this study, two groups of naïve purebred SD rats (N=3 per group, fasted over night) received the selected compound either as an intravenous (IV) infusion (1 mg/kg over 30 minutes) via the jugular vein or by oral gavage (2 mg/kg). The intravenous (IV) dosing vehicle was 5% ethanol, 35% polyethylene glycol 400 (PEG 400) and 60% water pH 2.0. The oral dosing vehicle was 5% ethanol, 55% PEG 400 and 40% citrate buffer pH 2.2.
Serial blood samples (approximately 0.3 mL each) were collected from jugular vein or other suitable vein at specified time points. For the IV infusion group, the blood samples were collected predose and at 0.25, 0.48, 0.58, 0.75, 1.5, 3, 6, 8, 12 and 24 hours after the start of infusion. For the oral group, the blood samples were collected predose and at 0.25, 0.50, 1, 2, 4, 6, 8, 12 and 24 hours after dosing. The blood samples were collected into VacutainerγM tubes containing EDTA-K3 as the anti-coagulant and were centrifuged at approximately 4° C. to obtain plasma. The plasma samples were stored at −20° C. until analysis by LC/MS/MS.
A bioanalytical method utilizing high performance liquid chromatography coupled to tandem mass spectrometry (LC/MS/MS) was developed for analysis of the selected compound in rat plasma. Detection was performed using selected reaction monitoring (SRM); Ions representing the precursor (M+H)^+ species was selected in quadrupole 1 (Q1) and collided with argon gas in the collision cell (Q2) to generate specific product ion, which was subsequently monitored by quadrupole 3 (Q3). Standard curve and quality control samples were prepared in male rat plasma and processed in the same way as the test samples to generate quantitative data.
Pharmacokinetic parameters were generated using non-compartmental pharmacokinetic analysis (Phoenix WinNonlin, version 6.3). Values below the lower limit of quantification (LLOQ) were assigned a value of zero if predose and treated as missing thereafter. Area under the curve (AUC) was calculated using the linear trapezoidal rule. The oral bioavailability (% F) was determined by comparison of the area under the curve (AUC) of the compound and/or a metabolite generated in plasma following oral administration to that generated following intravenous administration.

[5] = system: NS5A chimeric genotype 2a JFH-1 replicon with genotype 2a J6 strain NS5A gene (M31 present); assay: Replicon assay, genotype 2a J6 NS5A chimera; format: cell-based, HCV; details: Hepatitis C virus
In short: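 First, 3-fold serial dilutions of compound went onto replicon cells, DMSO serving as no-inhibition control and ITMN-191 at >100×EC50 as positive control. Next came 72 h incubation, lysis and Renilla luciferase measurement. Finally, EC50 was calculated by non-linear regression; replicons covered genotypes 1a H77, 1b Con1, 2a JFH-1 (L31) and J6-NS5A chimera (M31).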

[6] = system: NS5A chimeric genotype 1b Con1 replicon with genotype 3a S52 strain NS5A gene; assay: Replicon assay, genotype 3a NS5A chimera; format: cell-based, HCV; details: Hepatitis C virus
[7] = system: NS5A chimeric genotype 2a JFH-1 replicon with genotype 2b MD2b-1 strain NS5A gene (M31 present); assay: Replicon assay, genotype 2b NS5A chimera; format: cell-based, HCV; details: Hepatitis C virus
In short: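 EC50 was fitted by non-linear regression to Renilla luciferase signal after 72 h of exposure to 3-fold serially diluted compound (10 mM DMSO stocks). Controls were DMSO (none) and ITMN-191 above 100×EC50 (full). Chimeric 2a replicons were used either stable or transiently transfected into Huh-Lunet cells.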

[8] = system: stable HCV 2a JFH-1 Rluc replicon cells (L31 present in NS5A); assay: Renilla luciferase HCV replicon reporter assay, genotype 2a JFH-1; format: cell-based; details: Hepatitis C virus
In short: as §1

[9] = read-out: 4a (s) (nM), genotype 4a NS5A chimeric replicon, stable replicon cells (s)
[10] = read-out: 4a (s), (s), activity range
[11] = read-out: 2a J6 (t) (nM), genotype 2a J6 NS5A chimeric replicon (M31), transiently transfected (t) into Huh-Lunet cells
[12] = read-out: 2a J6 (t), transiently transfected (t) into Huh-Lunet cells, activity range
[13] = read-out: 3a (s) (nM), genotype 3a NS5A chimeric replicon, stable replicon cells (s)
[14] = read-out: 3a (s), (s), activity range
[15] = 2BS, read-out: 2b (s), stably replicating replicon cells (s), activity range
[16] = read-out: 2b (s) (nM), genotype 2b MD2b-1 NS5A chimeric replicon (M31), stably replicating replicon cells (s)
[17] = read-out: 2b (t) (nM), genotype 2b MD2b-1 NS5A chimeric replicon (M31), transiently transfected (t)
[18] = read-out: 2b (t), transiently transfected (t) into Huh-Lunet cells, activity range
[19] = read-out: 2a JFH (nM), genotype 2a JFH-1 replicon (L31 in NS5A), stable cells
[20] = read-out: 2a JFH, stable 2a JFH-1 Rluc replicon cells, L31 in NS5A, activity range

Row | Structure (SMILES) | EC50 [1] [nM] | EC50 ([1]; activity range) [nM] | EC50 [2, 9] [nM] | EC50 [2, 10] [nM] | EC50 [3] [nM] | bioavailability [4] [%] | EC50 [5, 11] [nM] | EC50 [5, 12] [nM] | EC50 [6, 13] [nM] | EC50 [6, 14] [nM] | EC50 [7, 15] [nM] | EC50 [7, 16] [nM] | EC50 [7, 17] [nM] | EC50 [7, 18] [nM] | EC50 [8, 19] [nM] | EC50 [8, 20] [nM] | EC50 ([6]; read-out: 3a (t) (nM), genotype 3a NS5A chimeric replicon, transiently transfected (t)) [nM] | EC50 ([6]; read-out: 3a (t), transiently transfected (t) into Huh-Lunet cells, activity range) [nM]
1 | COC(=O)N[C@H](C(=O)N1C[C@@H](C)C[C@H]1c1nc2ccc3cc4c(cc3c2[nH]1)OCc1cc(-c2cnc([C@@H]3CC[C@H](C)N3C(=O)[C@@H](NC(=O)OC)[C@@H](C)OC)[nH]2)ccc1-4)[C@@H](C)OC [DY, Methyl [(2S,3R)-3-methoxy-1-{(2S,5S)-2-[9-(2-{(2S,5S)-1-[N-(methoxycarbonyl)-O-methyl-L-threonyl]-5-methylpyrrolidin-2-yl}-1H-imidazol-5-yl)-1,11-dihydroisochromeno[4′,3′:6,7]naphtho[1,2-d]imidazol-2-yl]-4-methylpyrrolidin-1-yl}-1-oxobutan-2-yl]carbamate] | 0.044 | < 0.1 | 0.035 | < 0.1 | 0.065 | 8.3 | 0.047 | < 0.1 | 0.13 | 0.1 to 0.999 | 0.1 to 0.999 | 0.199 | 0.083 | < 0.1 | 0.028 | < 0.1 | – | –
2 | COC(=O)NC(C(=O)N1[C@@H](C)CC[C@H]1c1nc2ccc3cc4c(cc3c2[nH]1)OCc1cc(-c2cnc([C@@H]3CC[C@H](C)N3C(=O)[C@@H](NC(=O)OC)C3CCOCC3)[nH]2)ccc1-4)C(C)C (stereo partly drawn) [EA, Methyl(1-{(2S,5S)-2-[9-(2-{(2S,5S)-1-[(2S)-2-[(methoxycarbonyl)amino]-2-(tetra hydro-2H-pyran-4-yl)acetyl]-5-methylpyrrolidin-2-yl}-1H-imidazol-5-yl)-1,11-dihydroisochromeno[4′,3′:6,7]naphtho[1,2-d]imidazol-2-yl]-5-methylpyrrolidin-1-yl}-3-methyl-1-oxobutan-2-yl)carbamate] | 0.018 | < 0.1 | 0.019 | < 0.1 | 0.028 | 10.2 | 0.035 | < 0.1 | 0.035 | < 0.1 | < 0.1 | 0.088 | 0.037 | < 0.1 | 0.015 | < 0.1 | – | –
3 | COC(=O)N[C@H](C(=O)N1[C@@H](C)CC[C@H]1c1ncc(-c2ccc3c(c2)COc2cc4c(ccc5nc([C@@H]6C[C@H](C)CN6C(=O)[C@@H](NC(=O)OC)C6CCOCC6)[nH]c54)cc2-3)[nH]1)C(C)C [EI, methyl[(1 S)-2-[(2S,4S)-2-(9-{2-[(2S,5S)-1-{(2S)-2-[(methoxycarbonyl)amino]-3-methylbutanoyl}-5-methylpyrrolidin-2-yl]-1H-imidazol-5-yl}-1,11 dihydroisochromeno[4′,3′:6,7]naphtho[1,2-d]imidazol-2-yl)-4-methylpyrrolidin-1-yl]-2-oxo-1-(tetra hydro-2H-pyran-4-yl)ethyl]carbamate] | 0.025 | < 0.1 | 0.02 | < 0.1 | 0.048 | 4.4 | 0.022 | < 0.1 | 0.077 | < 0.1 | < 0.1 | 0.048 | – | – | 0.033 | < 0.1 | 0.074 | < 0.1
4 | COC(=O)N[C@H](C(=O)N1C[C@@H](C)C[C@H]1c1nc2ccc3cc4c(cc3c2[nH]1)OCc1cc(-c2cnc([C@@H]3CC[C@H](C)N3C(=O)[C@@H](NC(=O)OC)[C@@H](C)OC)[nH]2)ccc1-4)C(C)C [GA] | 0.019 | < 0.1 | 0.016 | < 0.1 | 0.035 | 3.2 | 0.064 | < 0.1 | 0.063 | < 0.1 | 0.1 to 0.999 | 0.245 | – | – | 0.018 | < 0.1 | – | –
5 | CC[C@H]1CC[C@@H](c2ncc(-c3ccc4c(c3)COc3cc5c(ccc6nc([C@@H]7CC[C@H](CC)N7C(=O)[C@@H](NC(=O)OC)C7CCOCC7)[nH]c65)cc3-4)[nH]2)N1C(=O)[C@@H](NC(=O)OC)C1CCOCC1 [IE] | 0.042 | < 0.1 | 0.039 | < 0.1 | 0.054 | 2.2 | 0.042 | < 0.1 | 0.198 | 0.1 to 0.999 | < 0.1 | 0.065 | – | – | 0.035 | < 0.1 | – | –
6 | CC[C@H]1CC[C@@H](c2ncc(-c3ccc4c(c3)COc3cc5c(ccc6nc([C@@H]7CC[C@H](CC)N7C(=O)[C@@H](NC(=O)OC)C7CCOCC7)[nH]c65)cc3-4)[nH]2)N1C(=O)[C@@H](NC(=O)OC)C(C)C [IG] | 0.027 | < 0.1 | 0.025 | < 0.1 | 0.035 | 28.2 | 0.122 | 0.1 to 0.999 | 0.787 | 0.1 to 0.999 | 0.1 to 0.999 | 0.25 | – | – | 0.034 | < 0.1 | – | –
7 | CC[C@H]1CC[C@@H](c2nc3ccc4cc5c(cc4c3[nH]2)OCc2cc(-c3cnc([C@@H]4CC[C@H](C)N4C(=O)[C@@H](NC(=O)OC)[C@@H](C)CC)[nH]3)ccc2-5)N1C(=O)[C@@H](NC(=O)OC)C1CCOCC1 [IK] | 0.039 | < 0.1 | 0.042 | < 0.1 | 0.038 | 27.4 | – | – | 0.155 | 0.1 to 0.999 | 0.1 to 0.999 | 0.181 | – | – | 0.015 | < 0.1 | – | –
8 | CC[C@H](C)[C@H](NC(=O)OC)C(=O)N1[C@@H](C)CC[C@H]1c1ncc(-c2ccc3c(c2)COc2cc4c(ccc5nc([C@@H]6C[C@@H]7CCC[C@@H]7N6C(=O)[C@@H](NC(=O)OC)C6CCOCC6)[nH]c54)cc2-3)[nH]1 [IP] | 0.025 | < 0.1 | 0.027 | < 0.1 | 0.029 | 18.9 | 0.041 | < 0.1 | 0.067 | < 0.1 | < 0.1 | 0.074 | – | – | 0.033 | < 0.1 | – | –
